The record followed here is patent publication US20230271980A1, “PREPARATION AND APPLICATION OF TRICYCLIC PYRIMIDINONE COMPOUND AND ITS COMPOSITION” (NEUSCO BIOTECH LIMITED, priority 2020, published 2023).

The target in assay [1] is T1, Lp-PLA2 enzyme in human plasma (Homo sapiens, UniProt Q13093).
T1 construct: from tissue; host or cells: pooled (mixed) human plasma
T1 sequence (Q13093 22-441): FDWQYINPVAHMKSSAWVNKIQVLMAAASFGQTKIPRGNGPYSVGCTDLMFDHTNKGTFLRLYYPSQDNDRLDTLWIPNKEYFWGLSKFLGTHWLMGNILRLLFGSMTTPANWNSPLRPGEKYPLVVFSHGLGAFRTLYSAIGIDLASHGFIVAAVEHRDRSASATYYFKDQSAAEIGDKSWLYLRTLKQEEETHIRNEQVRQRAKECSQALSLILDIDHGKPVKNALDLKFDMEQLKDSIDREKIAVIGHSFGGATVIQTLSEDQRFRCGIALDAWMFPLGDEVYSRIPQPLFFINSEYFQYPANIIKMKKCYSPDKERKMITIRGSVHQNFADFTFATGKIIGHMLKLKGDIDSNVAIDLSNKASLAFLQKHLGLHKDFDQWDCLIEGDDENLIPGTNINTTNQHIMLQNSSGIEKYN
Kind of assay: Human plasma Lp-PLA2 assay (Thio-PAF assay). In kind it is biochemical. The following applies: mixed human plasma; 2-thio-PAF substrate with CPM; 30 min pre-incubation; fluorescence ex 380/em 485; read-out: Thio-PAF (pIC50) (converted). As for the experimental part: (2) Human Plasma Lp-PLA2 Assay (Also Known as Thio-PAF Assay)
The human plasma assay was conducted using the sulphatide analog of PAF (phosphatidylcholine), which is hydrolyzed to produce phospholipids containing free sulfhydryl groups, subjected to Michael addition with CPM to generate fluorescence-enhancing maleimide.
Continuous quantitative analysis of thiol could be conducted by detecting the fluorescence intensity. This assay can be used to detect the inhibitory activity of the Lp-PLA2 inhibitor on the Lp-PLA2 enzyme in human plasma.
Assay Method: The compound to be tested (as shown in Table 2) was mixed with a DMSO solution in a volume ratio of (1:3), and diluted to prepare a source plate of a 384-well microplate. Then 0.01 μl of the compound was transferred via an ECHO liquid dispenser from the source plate to a 384-well Greiner 784076 low-volume plate, and 8 μl of pre-aliquoted and frozen mixed human plasma was added. The plate was centrifuged at 500 rpm for 10 seconds. After a 30 min pre-incubation, 2 μl of a substrate solution, and containing 2.5 mM 2-thio-PAF (a solution in ethanol), 32 μM CPM (a solution in DMSO) and a buffer of 3.2 mM N-ethylmaleimide (NEM) (a buffer solution consisting of 50 mM HEPES, pH7.4, 150 mM NaCl, 1 mM CHAPS) was added by a BRAVO liquid handling station to a 384-well Greiner 784076 low-volume plate. After 2 min, the reaction was quenched with 5 μl of 5% trifluoroacetic acid. After the plate was incubated at room temperature for 40 min in a dark place, the fluorescence intensity was read at ex 380/em 485 with an Envision microplate reader, and the XL fitting model in Excel was used to perform the curve analysis and QC analysis to calculate pIC50.

Assay [2] concerns the target T2, Recombinant human Lp-PLA2 (Homo sapiens, UniProt Q13093).
T2 sequence (Q13093 22-441): T1 sequence (Q13093 22-441)
Put plainly: Recombinant human Lp-PLA2 (rhLp-PLA2) assay (PED6 assay). In kind it is biochemical. The conditions noted are these: PED6 substrate; recombinant human Lp-PLA2 enzyme at 4 nM or 110 pM; 30 min pre-incubation; fluorescence ex 480/em 540; read-out: rhLp-PLA2 (pIC50) (converted). The source says: (1) Recombinant Human Lp-PLA2 (rhLp-PLA2) Assay (Also Known as PED6 Assay)
PED6 is a fluorescently labeled phospholipid that can be purchased directly from Invitogene or Molecular Probes. There is a fluorescence-quenching p-nitrophenyl group on the Sn3 position, and a Bodipy fluorescein (FL) group on the sn2 position. Once it is cleaved by the Lp-PLA2 enzyme, the FL group is released, resulting in enhanced fluorescence.
Assay method: The compound to be tested (as shown in Table 1) was mixed with DMSO solution at a volume ratio of 1:3, diluted to prepare a source plate of a 384-well microplate. Then 0.01 μl of the compound was transferred via an ECHO liquid dispenser from the source plate to a 384-well Greiner 784076 plate, and 5 microliters of a buffer composed of 50 mM HEPES, pH7.4, 150 mM NaCl, 1 mM CHAPS (the buffer solution contains Recombinant human Lp-PLA2 enzyme at a concentration of 4 nM or 110 pM) was added to each well on the plate. The plate was centrifuged at 500 rpm for 10 seconds. After 30 minutes of pre-incubation, 5 microliters of the above buffer solution was added to a 384-well Greiner784076 plate, and the plate was centrifuged at 500 rpm for 10 seconds.

For `O=c1nc(OCc2cccc(F)c2F)c2c3n1CCN3CCO2` [Compound 2], the IC50 in assay [1] was 158 nM; in assay [2] it was 10 nM.

For `O=c1nc(OCc2cc(F)c(Oc3ccc(OC(F)(F)F)c(Cl)c3)c(F)c2)c2c3n1CCN3CCO2` [Compound 12], the IC50 in assay [1] was 15.8 nM; in assay [2], 0.0794 nM.

On to `O=c1nc(OCc2cc(F)c(Oc3ccc(C(F)(F)F)nc3)c(F)c2)c2c3n1CCCN3CCO2` [Compound 16], for which the IC50 in assay [1] is 10 nM; in assay [2] it was 0.0794 nM.

With `O=c1nc(OCc2cc(F)c(Oc3ccc(C(F)(F)F)c(Cl)c3)c(F)c2)c2c3n1CCN3CCO2` [Compound 11], the IC50 in assay [1] was 10 nM; in assay [2], 0.1 nM.

With `Cc1ccc(Oc2c(F)cc(COc3nc(=O)n4c5c3OCCN5CC4)cc2F)cn1` [Compound 7], the IC50 in assay [1] was 20 nM; in assay [2], 0.251 nM.

As to `Cc1cc(Oc2c(F)cc(COc3nc(=O)n4c5c3OCCN5CC4)cc2F)ccc1Cl` [Compound 14], the IC50 was 15.8 nM in assay [1] and 0.2 nM in assay [2].

For the compound `O=c1nc(OCc2cc(F)c(Oc3cccc(OC(F)(F)F)c3)c(F)c2)c2c3n1CCN3CCO2` [Compound 10], the IC50 in assay [1] was 15.8 nM; in assay [2], 0.2 nM.

As for `Cc1cc(Oc2c(F)cc(COc3nc(=O)n4c5c3OCCN5CC4)cc2F)ccn1` [Compound 6], the IC50 in assay [1] was 15.8 nM; in assay [2], 0.158 nM.

Consider `O=c1nc(OCc2cc(F)c(Oc3ccc(C(F)(F)F)nc3)c(F)c2)c2c3n1CCN3CCO2` [Compound 5], for which the IC50 in assay [1] is 20 nM; in assay [2], 0.2 nM.

Consider `Cc1ccc(Oc2c(F)cc(COc3nc(=O)n4c5c3OCCN5CCC4)cc2F)cn1` [Compound 17], for which the IC50 in assay [1] is 7.94 nM; in assay [2], 0.0501 nM.

`O=c1nc(OCc2cc(F)c(F)c(F)c2)c2c3n1CCCN3CCO2` [Compound 19]: the IC50 was 63.1 nM in assay [1] and 3.98 nM in assay [2].

For `Cc1ncc(Oc2c(F)cc(COc3nc(=O)n4c5c3OCCN5CC4)cc2F)cn1` [Compound 8], the IC50 is 39.8 nM in assay [1] and 1 nM in assay [2].

Turning to `O=c1nc(OCc2cc(F)c(F)cc2F)c2c3n1CCN3CCO2` [Compound 1], the IC50 in assay [1] was 316 nM; in assay [2], 15.8 nM.

For the compound `O=c1nc(OCc2cc(F)c(Oc3ccnc(C(F)(F)F)c3)c(F)c2)c2c3n1CCCN3CCO2` [Compound 15], the IC50 in assay [1] is 7.94 nM; in assay [2] it was 0.0631 nM.

In the case of `O=c1nc(OCc2cccc(F)c2F)c2c3n1CCCN3CCO2` [Compound 18], the IC50 in assay [1] is 126 nM; in assay [2] it was 10 nM.

`O=c1nc(OCc2cc(F)c(Oc3ccc(C(F)(F)F)cc3)c(F)c2)c2c3n1CCN3CCO2` [Compound 9]: the figures for the IC50 in assay [1] and in assay [2] were 10 nM and 0.158 nM, respectively.

Turning to `O=c1nc(OCc2cc(F)c(Oc3ccc(Cl)c(C(F)(F)F)c3)c(F)c2)c2c3n1CCN3CCO2` [Compound 13], the IC50 was 12.6 nM in assay [1] and 0.158 nM in assay [2].

Regarding `O=c1nc(OCc2cc(F)c(F)c(F)c2)c2c3n1CCN3CCO2` [Compound 3], the IC50 was 50.1 nM in assay [1] and 3.16 nM in assay [2].

With `O=c1nc(OCc2cc(F)c(Oc3ccnc(C(F)(F)F)c3)c(F)c2)c2c3n1CCN3CCO2` [Compound 4], the IC50 in assay [1] was 12.6 nM; in assay [2], 0.126 nM.
